Read-outs that look alike come from different tables or passages of the source.
How the values were obtained:
[1] = system: OPM-2 multiple myeloma xenografts; test: OPM-2 multiple myeloma xenograft; assay type: in vivo, SCID Beige mice; conditions: Compound 3 50 mg/kg po qd x21, day 23 vs vehicle
Description: (§1) The efficacy of the combinations of the invention may be measured in vivo by implanting allografts or xenografts of cancer cells in rodents and treating the tumor-bearing animals with the combinations. Variable results are to be expected depending on the cell line, the presence or absence of certain mutations in the tumor cells, the sequence of administration of a formula I compound and chemotherapeutic agent, dosing regimen, and other factors. Subject mice were treated with drug(s) or control (Vehicle) and monitored over several weeks or more to measure the time to tumor doubling, log cell kill, and tumor inhibition.
Dosing of all cohorts commenced on Day 0 when the mean tumor volume of all cohorts was between about 100 to 200 cubic millimeters. […] Formula A was tested at as a single agent at a single dose level of 75 mg/kg for which a similar TGI was obtained at day 23.

[2] = system: RPMI 8226.x1 multiple myeloma xenografts; test: RPMI 8226.x1 multiple myeloma xenograft; assay type: in vivo, SCID Beige mice
Description: as §1
Dosing of all cohorts commenced on Day 0 when the mean tumor volume of all cohorts was between about 100 to 200 cubic millimeters.

[3] = system: prostate cancer cell line PC3; test: Cell Titer Glo proliferation and survival assay, PC3; assay type: cell-based; conditions: PC3, FIG. 5
Source text: The results obtained here are representative of a subset of prostate cell lines tested.

[4] = system: bone marrow aspirate samples from multiple myeloma patients; test: Primary cancer cell isolates from bone marrow aspirates, apoptosis; assay type: cell-based, human; conditions: 0.3 or 1.0 micromolar; two of four cases
Description: Shown in FIG. 2 are a summary of Combination Index values for Compound 3 in combination with different agents. The values shown were calculated at the ED50 of the dose response curves which were similar in nature to those exemplified in FIG. 1. Each dot in the plot represents the test results obtained with a different multiple myeloma cell line with a different combination of test agents, including Compound 3 plus a second agent as labeled on the abscissa. The horizontal line on the plot itself indicates the mean of all CI values for a given test agent. Combinations of Compound 3 with clinical standard of care chemotherapeutic agents including dexamethasone, lenalidomide, bortezomib, and melphalan produced variable results wherein CI values between about 0.1 and about 1 were obtained, with means generally greater than about 0.5. Compared to these clinically active agents, unexpectedly uniform and unexpectedly potent combination test results were obtained for Compound 3 in combination with Formula A, in which the majority of calculated CI values were less than about 0.2 and the mean across all cancer cell lines tested was about 0.2. In addition to these findings, bone marrow aspirate samples from multiple myeloma patients […] to test Formula A and Compound 3 singly and in combination on these primary cancer cell isolates.

[5] = system: multiple myeloma cell line KMS11; test: Cell Titer Glo proliferation and survival assay, KMS11 and other multiple myeloma cell lines; assay type: cell-based; conditions: Homo sapiens, KMS-11; single agent; ten multiple myeloma cell lines tested; read-out: IC50 against myeloma cell lines, single agent
Source text: The results obtained here are representative of a total of ten multiple myeloma cell lines tested.

[6] = system: MM1.s multiple myeloma xenografts; test: MM1.s multiple myeloma xenograft; assay type: in vivo, SCID mice; conditions: Compound 3 50 mg/kg po qd, day 18 vs vehicle
Description: as §1
Dosing of all cohorts commenced on Day 0 when the mean tumor volume of all cohorts was between about 200 to 300 cubic millimeters. […] Formula A was tested at as a single agent at a single dose level of 75 mg/kg for which a lesser TGI was obtained at day 18.

BaF3 parental cells = test: BaF3 parental cell proliferation (Cell Titer Glo); assay type: cell-based; conditions: Mus musculus, Table 3
Description: BaF3 parental line was obtained from the DSMZ repository. BaF3 lines transfected with PIM1 or PIM2 were generated. Mouse IL-3 was purchased from R&D Systems. G418 was purchased from Clontech. Media for BaF3 parental line contained RPMI, 10% FBS, 2 mM L-Glutamine, 2 ng/mL mIL-3. Media for BaF3 PIM1 & 2 lines contained RPMI, 10% FBS, 2 mM L-Glutamine, […]. Media for MM1.S line contained RPMI, 10% FBS, 2 mM L-Glutamine.
BaF3 parental cells, BaF3 PIM1 cells, BaF3 PIM2 cells, and MM1.S cells were seeded at 2 k/well, 5 k/well, 5 k/well, and 10 k/well respectively, in a 384-well plate, at 45 μL/well. Test compound was added at 5 μL/well. BaF3 cells (parental and transfected) were incubated overnight, while MM1.S cells were incubated for 72 hours at 37° C., 5% CO2. Cell Titer Glo Reagent (Promega) was added at 50 μL/well, the plates were incubated for 30 minutes, and their luminescence read on an HT Analyst. IC50/EC50 values for the test compound were calculated.

EOL-1 = EOL-1 cell assay; assay type: cell-based; conditions: Homo sapiens, EOL1; Table 3
[7] = system: syngeneic A20 lymphoma tumors; test: Syngeneic A20 lymphoma tumor model; assay type: in vivo, Balb/c mice; conditions: Compound 3 25 and 50 mg/kg or Formula A 75 mg/kg po qd x21
Description: The efficacy of the combinations of the invention may be measured in vivo by implanting allografts or xenografts of cancer cells in rodents and treating the tumor-bearing animals with the combinations. […] Subject mice were treated with drug(s) or control (Vehicle) and monitored over several weeks or more to measure the time to tumor doubling, log cell kill, and tumor inhibition.
Dosing of all cohorts commenced on Day 0 when the mean tumor volume of all cohorts was between […]. […] At the conclusion of this study, femurs were collected and histological analysis of the bone marrow was conducted, and peripheral blood was collected for determination of blood cell counts.

BaF3 PIM1 cells = BaF3 PIM1 cells (Homo sapiens, UniProt P11309); test: BaF3 PIM1 cell proliferation (Cell Titer Glo); assay type: cell-based
Sequence of BaF3 PIM1 cells (P11309 whole entry, change not shown): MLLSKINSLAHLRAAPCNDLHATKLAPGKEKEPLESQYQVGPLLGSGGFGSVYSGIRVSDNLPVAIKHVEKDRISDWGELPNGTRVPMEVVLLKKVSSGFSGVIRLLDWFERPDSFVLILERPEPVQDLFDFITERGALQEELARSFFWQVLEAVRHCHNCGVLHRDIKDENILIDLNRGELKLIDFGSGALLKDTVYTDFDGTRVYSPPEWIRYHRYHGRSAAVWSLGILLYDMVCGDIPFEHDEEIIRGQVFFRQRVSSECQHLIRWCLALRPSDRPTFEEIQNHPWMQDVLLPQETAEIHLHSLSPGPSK

## Nc1sc(-c2c(F)cccc2F)nc1C(=O)Nc1cnccc1N1CCC[C@H](N)C1 [Example 3, (S)-5-amino-N-(4-(3-aminopiperidin-1-yl)pyridin-3-yl)-2-(2,6-difluorophenyl)thiazole-4-carboxamide]
[1]
  tumor growth inhibition (TGI): about 45%
[2]; Compound 3 5 mg/kg po qd x21
  effect on tumor growth at the lowest dose: trend toward accelerated tumor growth, though this trend was not statistically significant
[2]; Compound 3 50 mg/kg po qd x21, day 27 vs vehicle
  tumor growth inhibition (TGI): about 70%
[3]
  single agent activity, PC3: little activity
[4]
  activity on primary cancer cell isolates: only limited single agent activity
[5]
  IC50: 100 to 500 nM
[6]
  tumor growth inhibition (TGI): about 60%
BaF3 parental cells
  IC50: 8000 nM
EOL-1
  IC50: 10 nM
[7]
  effect on tumor growth, single agents: no significant effect on tumor growth
BaF3 PIM1 cells; Table 3, read-out: BaF3-Pim1
  GI50: 10 nM
BaF3 PIM1 cells; incubated overnight, read-out: Prolif BaF3_PIM1 (IC50)
  GI50: 13.5 nM
